In patent US6403788B1, “Non-genotoxic metalloporphyrins as synthetic catalytic scavengers of reactive oxygen species” (Eukarion, Inc., priority 2000, dated 2002):

Columns and labels:
[1] = system: ΦX 174 DNA Plasmid (Form I); test: Cleavage of ΦX 174 DNA plasmid (form I), activation with ascorbate in the presence of air; type: biochemical, phage ΦX 174; settings: DNA 3.5 nM, Asc. 1 mM
Text: (§1) The DNA cleavage activity was quantified in terms of number of single-strand breaks per DNA molecule according to the equation […], Io=% form I (supercoiled DNA) in the DNA control, and I=% form I in the experiment (see Bernadou et al, Biochemistry, 28: 7268-7275, (1989)). This assay is very sensitive and is able to detect very low levels of DNA activity. S values less than S=1.0 are indicative of very low DNA cleavage activity when the compounds are at a concentration of equal to or less than 1000 nM and KHSO5 is present at a concentration of equal to or less than 100 μM.
(§2) ΦX 174 DNA digestion conditions for standard experiments were as follows: commercially available DNA was diluted to 50 μg/mL in phosphate buffer (10 mM, pH 7.5). The reaction involved 5 μL of ΦX 174 DNA (50 μg/mL, 74.8 μM in base pairs), 5 μL of 40 mM phosphate buffer, pH 7.5 with 400 mM NaCl, 5 μL of metalloporphyrin in double-distilled water or 5 μL of iron-bleomycin complex in double-distilled water, and 5 μL of KHSO5 or 5 μL of H2O2 or 5 μL of ascorbate in double-distilled water. Preincubation of DNA and metalloporphyrins or iron-bleomycin complex was performed for about 15 min. The digestion time in the presence of KHSO5 was 10 min, of H2O2 was 30 min and of ascorbate was 30 min at 20° C. DNA cleavage was monitored by agarose gel electrophoresis. Reactions with KHSO5 were first quenched by 2 μL of 100 mM Hepes buffer, pH 8. In all cases, reactions were quenched by 5 μL of a stopping reagent. The stopping reagent consisted of 250 mM Hepes buffer, pH 7.4, containing 75% glycerol and 0.05% bromophenol blue. Reaction mixtures were then run in 0.8% agarose slab horizontal gel containing ethidium bromide […], at constant current (25 mA for 15h), in 89 mM Tris-borate buffer and 2.5 mM EDTA pH 8.3. Bands were located by WV light (254 nm), photographed, and quantitated by microdensitometry. The correction coefficient 1.47±0.30 was used for decreased stainability of form I DNA vs form II DNA and form III DNA.

[2] = system: ΦX 174 DNA Plasmid (Form I); test: Cleavage of ΦX 174 DNA plasmid (form I), activation with H2O2; type: biochemical, phage ΦX 174; settings: for S (single-strand breaks per DNA molecule) / form % I / form % II / form % III: DNA 3.5 nM, H2O2 1 mM
Text: as §1, §2

[3] = Catalase activity, hydrogen peroxide consumed at 20 minutes; type: biochemical; settings: over 20 minutes; 10 μM compound, 100 μM hydrogen peroxide, 40 mM sodium phosphate pH 7.4
Protocol: Catalase activity was measured by incubating the sample compound with hydrogen peroxide and determining the amount of hydrogen peroxide remaining after a period of time using a colorimetric peroxidase-coupled assay method. 10 μM sample compound and 100 μM hydrogen peroxide in 40 mM sodium phosphate pH 7.4 were incubated together at ambient temperature in a multi-well plate. After the desired reaction period had elapsed, 20 μl of peroxidase/ABTS reagent was added (peroxidase/ABTS reagent contained 100 μl of 50 mM Na phosphate, pH 7.4, 1 mg horseradish peroxidase (1310 U/mg) and […]). After five minutes, absorbance at 750 nm was determined. The amount of hydrogen peroxide remaining was calculated based on a standard curve. To compare rates of catalase reaction, the amount of hydrogen peroxide consumed at 20 minutes was determined (See table III). It was also of interest to determine the total number of turnovers completed by the compound before inactivation by hydrogen peroxide. This was assayed under similar conditions, except that 15.8 μM compound was combined with 1582 μM hydrogen peroxide in 5 mM Na phosphate, pH 7.4. Reactions were allowed to proceed to completion and then the amount of hydrogen peroxide remaining was determined as described above. Results showing […] in the turnover assay (nmoles hydrogen peroxide per nmole compound) are also shown in Table III.

[4] = Peroxidase activity, ABTS oxidation; type: biochemical; settings: 10 μM compound, 200 μM hydrogen peroxide, 500 μM ABTS, pH 8.1, 740 nm
Protocol: Peroxidase activity was measured by incubating 10 μM compound, 200 μM hydrogen peroxide and 500 μM ABTS in 50 mM sodium phosphate, pH 8.1. The rate of ABTS oxidation was monitored at 740 nm and initial rates (change in absorbance per min.) determined.

[5] = Superoxide dismutase activity, xanthine-xanthine oxidase / cytochrome C; type: biochemical; settings: reciprocal of IC50; xanthine 60 μM, xanthine oxidase 0.009 units/ml, cytochrome C 27.8 μM
Protocol: Superoxide Dismutase Activity was measured by incubating the compound with a superoxide generating system (Xanthine, 60 μM-Xanthine Oxidase, 0.009 units/ml) and a detector molecule (Cytochrome C, 27.8 μM). Upon reacting with a molecule of superoxide, Cytochrome C undergoes a spectrum-shift which can be detected as an increase in absorbance at 550 nm. In this assay procedure, the reactant concentrations were adjusted to give a reaction rate close to 0.1 AU/min. at 2-3 min. after the reaction began. Addition of compounds with Superoxide Dismutase activity reduce the rate of absorbance change. Compounds were assayed at several concentrations (typically at 0, 2, 4, and 8 μM) and the resulting rates were graphed and fitted to a linear regression formula. The linear regression formula was then solved to determine the concentration of compound required to reduce the reaction rate to 50% of the rate without compound present (IC50).

SMILES: CC[NH+](CC)CCNS(=O)(=O)c1c(C)cc(C)c(C2=C3C=CC4=[N+]3[Fe-]35[n]6c2ccc6C(c2c(C)cc(C)c(S(=O)(=O)NCC[NH+](CC)CC)c2C)=C2C=CC(=[N+]23)C(c2c(C)cc(C)c(S(=O)(=O)NCC[NH+](CC)CC)c2C)=c2ccc([n]25)=C4c2c(C)cc(C)c(S(=O)(=O)NCC[NH+](CC)CC)c2C)c1C.[Cl-].[Cl-].[Cl-].[Cl-].[Cl-] [Structural Formula V, meso-tetrakis[3-(N-(2-(N,N-diethylammonio)ethyl)aminosulfonyl)-2,4,6-trimethylphenyl]porphyrinato diaqua-iron (III) pentachloride]
- S (single-strand breaks per DNA molecule) ([1]; compound 10 nM): 0.11 SSBs
- form % I ([1]; compound 10 nM): 87%
- form % II ([1]; compound 10 nM): 13%
- form % III ([1]; compound 10 nM): 0%
- S (single-strand breaks per DNA molecule) ([1]; compound 100 nM): 0.34 SSBs
- form % I ([1]; compound 100 nM): 75%
- form % II ([1]; compound 100 nM): 25%
- form % III ([1]; compound 100 nM): 0%
- S (single-strand breaks per DNA molecule) ([1]; compound 1 μM): 2.76 SSBs
- form % I ([1]; compound 1 μM): 29%
- form % II ([1]; compound 1 μM): 71%
- form % III ([1]; compound 1 μM): 0%
- S (single-strand breaks per DNA molecule) ([2]; compound 10 nM): 0.01 SSBs
- form % I ([2]; compound 10 nM): 94%
- form % II ([2]; compound 10 nM): 6%
- form % III ([2]; compound 10 nM): 0%
- S (single-strand breaks per DNA molecule) ([2]; compound 100 nM): 0 SSBs
- form % I ([2]; compound 100 nM): 95%
- form % II ([2]; compound 100 nM): 5%
- form % III ([2]; compound 100 nM): 0%
- S (single-strand breaks per DNA molecule) ([2]; compound 1 μM): 0.16 SSBs
- form % I ([2]; compound 1 μM): 84%
- form % II ([2]; compound 1 μM): 16%
- form % III ([2]; compound 1 μM): 0%
- DNA cleavage activity in H2O2 medium ([2]; H2O2 medium): does not exhibit significant DNA cleavage activity
- CATALASE* Rate at 20 mins. [3]: 6.4 nmole H2O2/nmole Structural Formula compound
- PEROXIDASE Initial Rate [4]: 0.0443 change in absorbance per min.
- Cyt C SOD 1/(IC50, μM) [5]: 0.067 µM⁻¹
